Reference: ChEMBL document CHEMBL3871307, “Discovery of Chromane Propionic Acid Analogues as Selective Agonists of GPR120 with in Vivo Activity in Rodents” (ACS Med Chem Lett, 2017)
The source made the active and inactive calls. The calls are words filed in the database; no cut-off is given here.

Columns and labels:
[1] = target: T1, Peroxisome proliferator-activated receptor alpha (Homo sapiens) (UniProt Q07869); assay: Activity at PPARalpha (unknown origin)
T1 sequence (whole entry): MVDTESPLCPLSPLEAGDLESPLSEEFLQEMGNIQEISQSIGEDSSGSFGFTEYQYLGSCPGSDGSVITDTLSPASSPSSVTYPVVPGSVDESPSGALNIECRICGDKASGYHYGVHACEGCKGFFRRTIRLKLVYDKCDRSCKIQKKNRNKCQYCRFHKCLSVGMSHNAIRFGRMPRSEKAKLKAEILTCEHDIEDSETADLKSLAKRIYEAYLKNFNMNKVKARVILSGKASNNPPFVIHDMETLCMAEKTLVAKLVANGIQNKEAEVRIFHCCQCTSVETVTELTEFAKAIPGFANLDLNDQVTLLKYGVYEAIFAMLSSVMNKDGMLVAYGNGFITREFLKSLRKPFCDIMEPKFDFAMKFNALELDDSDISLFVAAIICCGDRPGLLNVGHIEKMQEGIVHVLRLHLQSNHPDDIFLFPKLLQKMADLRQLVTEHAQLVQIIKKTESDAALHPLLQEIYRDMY

[2] = Plasma concentration in C57BL/6 transverse aortic constriction mouse at 10 mg/kg, po via gavage measured at 3 hrs; type: ADME, organism-based; conditions: C57BL/6, mouse
[3] = Protein binding in rhesus monkey plasma at 0.5 mg/kg, iv or 1 mg/kg, po by LC/MS/MS analysis; type: ADME, organism-based, Macaca mulatta; conditions: read-out: PPB (converted)
[4] = Intrinsic clearance in rat plasma at 1 mg/kg, iv or 2 mg/kg, po by LC/MS/MS analysis; type: ADME, organism-based; conditions: in vivo
Mus musculus [5] = assay: Glucose lowering effect in C57BL/6 transverse aortic constriction mouse assessed as reduction in blood glucose at 3 to 30 mg/kg, po via gavage pretreated for 60 mins followed by dextrose challenge measured up to 120 mins post glucose challenge by OGTT; type: functional, organism-based
[6] = target: Sodium channel protein type 5 subunit alpha (Homo sapiens, UniProt Q14524); assay: Inhibition of Nav1.5 (unknown origin)
Sodium channel protein type 5 subunit alpha, sequence (Q14524 whole entry): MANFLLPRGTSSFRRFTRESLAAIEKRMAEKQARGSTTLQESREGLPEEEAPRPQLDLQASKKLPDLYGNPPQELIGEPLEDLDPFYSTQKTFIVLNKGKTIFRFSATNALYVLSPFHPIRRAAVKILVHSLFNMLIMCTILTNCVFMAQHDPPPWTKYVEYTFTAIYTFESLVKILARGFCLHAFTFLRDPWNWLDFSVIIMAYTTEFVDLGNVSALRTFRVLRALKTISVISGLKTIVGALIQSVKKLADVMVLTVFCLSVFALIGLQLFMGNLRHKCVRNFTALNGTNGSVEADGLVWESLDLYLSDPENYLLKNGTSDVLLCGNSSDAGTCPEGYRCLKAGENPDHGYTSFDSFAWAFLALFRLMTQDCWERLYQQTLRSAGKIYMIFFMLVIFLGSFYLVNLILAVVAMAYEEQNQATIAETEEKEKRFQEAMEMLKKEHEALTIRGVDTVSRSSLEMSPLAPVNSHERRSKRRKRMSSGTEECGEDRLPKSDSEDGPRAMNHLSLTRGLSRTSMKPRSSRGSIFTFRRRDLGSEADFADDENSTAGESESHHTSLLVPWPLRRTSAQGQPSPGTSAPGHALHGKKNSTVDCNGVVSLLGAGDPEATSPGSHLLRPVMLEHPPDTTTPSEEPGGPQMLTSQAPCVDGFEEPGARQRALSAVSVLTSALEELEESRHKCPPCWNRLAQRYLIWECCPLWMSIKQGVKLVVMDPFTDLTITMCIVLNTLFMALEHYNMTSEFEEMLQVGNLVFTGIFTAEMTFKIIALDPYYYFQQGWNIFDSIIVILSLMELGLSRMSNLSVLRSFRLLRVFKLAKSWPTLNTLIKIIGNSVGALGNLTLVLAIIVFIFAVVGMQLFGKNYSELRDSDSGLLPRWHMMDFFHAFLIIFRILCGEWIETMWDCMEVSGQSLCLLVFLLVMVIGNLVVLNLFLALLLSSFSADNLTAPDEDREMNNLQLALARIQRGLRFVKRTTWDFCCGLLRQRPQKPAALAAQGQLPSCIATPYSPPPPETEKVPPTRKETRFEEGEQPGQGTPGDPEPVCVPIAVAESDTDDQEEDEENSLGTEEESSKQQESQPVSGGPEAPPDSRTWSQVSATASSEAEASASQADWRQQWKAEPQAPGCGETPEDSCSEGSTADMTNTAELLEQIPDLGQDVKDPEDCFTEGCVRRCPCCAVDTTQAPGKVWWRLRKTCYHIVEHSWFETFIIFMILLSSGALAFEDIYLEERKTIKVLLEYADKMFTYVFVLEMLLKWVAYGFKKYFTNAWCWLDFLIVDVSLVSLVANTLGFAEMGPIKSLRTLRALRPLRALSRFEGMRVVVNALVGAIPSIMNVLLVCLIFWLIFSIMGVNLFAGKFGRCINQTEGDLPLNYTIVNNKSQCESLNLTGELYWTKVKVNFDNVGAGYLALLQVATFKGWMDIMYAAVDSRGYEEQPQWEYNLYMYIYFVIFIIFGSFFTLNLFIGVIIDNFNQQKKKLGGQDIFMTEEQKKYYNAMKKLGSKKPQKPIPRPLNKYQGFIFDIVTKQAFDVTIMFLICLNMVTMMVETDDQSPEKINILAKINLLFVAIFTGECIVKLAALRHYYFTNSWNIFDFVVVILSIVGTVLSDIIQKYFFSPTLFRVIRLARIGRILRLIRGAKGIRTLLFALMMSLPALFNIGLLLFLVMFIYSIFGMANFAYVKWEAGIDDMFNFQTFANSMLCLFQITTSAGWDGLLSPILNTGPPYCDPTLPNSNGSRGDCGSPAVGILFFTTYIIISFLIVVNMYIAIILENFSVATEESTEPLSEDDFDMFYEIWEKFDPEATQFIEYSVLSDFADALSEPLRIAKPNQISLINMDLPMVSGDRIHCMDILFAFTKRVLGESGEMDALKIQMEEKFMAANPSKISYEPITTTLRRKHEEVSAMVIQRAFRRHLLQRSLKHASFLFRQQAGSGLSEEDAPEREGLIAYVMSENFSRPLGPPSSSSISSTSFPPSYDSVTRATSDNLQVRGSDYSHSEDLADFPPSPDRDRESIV

[7] = Mean residence time in mouse plasma at 2 mg/kg, iv or 30 mg/kg, po by LC/MS/MS analysis; type: ADME, organism-based
[8] = target: T2, Peroxisome proliferator-activated receptor gamma (Homo sapiens) (UniProt P37231); assay: Activity at PPARgamma (unknown origin)
T2 sequence (whole entry): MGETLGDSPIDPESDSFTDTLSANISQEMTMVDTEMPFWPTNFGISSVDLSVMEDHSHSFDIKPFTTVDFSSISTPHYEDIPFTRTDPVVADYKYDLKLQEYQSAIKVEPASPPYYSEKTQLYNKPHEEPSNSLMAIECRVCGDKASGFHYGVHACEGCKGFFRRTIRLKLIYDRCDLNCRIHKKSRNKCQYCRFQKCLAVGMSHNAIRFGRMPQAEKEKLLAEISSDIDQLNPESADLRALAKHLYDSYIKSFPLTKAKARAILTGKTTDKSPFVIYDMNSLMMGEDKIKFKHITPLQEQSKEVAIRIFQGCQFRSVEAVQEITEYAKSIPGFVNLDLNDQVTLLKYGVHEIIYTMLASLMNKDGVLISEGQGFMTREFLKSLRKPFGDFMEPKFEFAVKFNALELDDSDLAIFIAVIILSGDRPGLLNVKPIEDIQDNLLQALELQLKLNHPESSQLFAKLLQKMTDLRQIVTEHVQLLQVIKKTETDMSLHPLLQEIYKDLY

Mus musculus [9] = assay: Glucose lowering effect in C57BL/6 transverse aortic constriction mouse assessed as reduction in blood glucose pretreated for 60 mins via oral gavage followed by dextrose challenge measured up to 120 mins post glucose challenge by OGTT; type: functional
[10] = Protein binding in mouse plasma at 2 mg/kg, iv or 30 mg/kg, po by LC/MS/MS analysis; type: ADME, organism-based; conditions: read-out: PPB (converted)
[11] = Intrinsic clearance in mouse plasma at 2 mg/kg, iv or 30 mg/kg, po by LC/MS/MS analysis; type: ADME, organism-based; conditions: in vivo
Mus musculus [12] = assay: In vivo agonist activity at GPR120 in wild type C57BL/6 transverse aortic constriction mouse assessed as glucose lowering effect at 150 mg/kg, po via gavage pretreated for 60 mins followed by dextrose challenge measured up to 120 mins post glucose challenge by OGTT; type: functional, organism-based
[13] = target: T3, Peroxisome proliferator-activated receptor delta (Homo sapiens) (UniProt Q03181); assay: Activity at PPARdelta (unknown origin)
T3 sequence (whole entry): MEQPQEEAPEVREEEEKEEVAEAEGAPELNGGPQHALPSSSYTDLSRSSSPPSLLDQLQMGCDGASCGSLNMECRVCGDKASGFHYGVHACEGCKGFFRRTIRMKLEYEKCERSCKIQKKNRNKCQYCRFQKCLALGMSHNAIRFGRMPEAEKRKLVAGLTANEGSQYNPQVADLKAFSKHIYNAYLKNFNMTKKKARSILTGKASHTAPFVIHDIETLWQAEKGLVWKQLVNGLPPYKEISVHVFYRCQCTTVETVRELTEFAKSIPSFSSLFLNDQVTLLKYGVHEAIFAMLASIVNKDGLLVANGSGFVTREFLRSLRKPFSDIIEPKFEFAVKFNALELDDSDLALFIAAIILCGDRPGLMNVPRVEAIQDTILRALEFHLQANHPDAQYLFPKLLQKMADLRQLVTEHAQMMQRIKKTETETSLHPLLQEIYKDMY

[14] = Inhibition of IKr (unknown origin) expressed in HEK293 cells; type: cell-based, Homo sapiens
[15] = Volume of distribution at steady state in rhesus monkey plasma at 0.5 mg/kg, iv or 1 mg/kg, po by LC/MS/MS analysis; type: ADME, organism-based, Macaca mulatta; conditions: read-out: Vdss
[16] = Intrinsic clearance in rhesus monkey plasma at 0.5 mg/kg, iv or 1 mg/kg, po by LC/MS/MS analysis; type: ADME, organism-based, Macaca mulatta; conditions: in vivo
[17] = Protein binding in rat plasma at 0.1 mg/kg administered as iv casette dose by LC/MS/MS analysis; type: ADME, organism-based; conditions: read-out: PPB (converted)
[18] = target: T4, Free fatty acid receptor 4 (Homo sapiens) (UniProt Q5NUL3); assay: Agonist activity at human GPR120 short isoform expressed in CHOK1 cells assessed as increase in IP1 accumulation at 10 uM after 60 mins by HTRF assay; type: functional, cell-based; conditions: CHO-K1
T4 sequence (whole entry): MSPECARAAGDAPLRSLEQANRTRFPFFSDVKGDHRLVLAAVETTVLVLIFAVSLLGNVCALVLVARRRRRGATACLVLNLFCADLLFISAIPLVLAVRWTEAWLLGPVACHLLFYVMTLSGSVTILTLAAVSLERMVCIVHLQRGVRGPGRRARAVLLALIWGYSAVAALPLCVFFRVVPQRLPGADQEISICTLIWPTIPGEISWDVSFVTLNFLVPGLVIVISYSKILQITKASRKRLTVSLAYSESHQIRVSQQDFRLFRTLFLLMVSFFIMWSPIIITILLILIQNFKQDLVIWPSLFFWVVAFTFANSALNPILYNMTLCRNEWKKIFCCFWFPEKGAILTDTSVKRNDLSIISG

[19] = Clearance in rhesus monkey plasma at 0.5 mg/kg, iv or 1 mg/kg, po by LC/MS/MS analysis; type: ADME, organism-based, Macaca mulatta

Activity [1]: > 10 µM
concentration at 3 h [2]: 1170 nM
fraction unbound [3]: 0.0022
CL [4]: 470 mL/min/kg
MRT [7]: 2.4 h
Activity [8]: > 10 µM
fraction unbound [10]: 0.0033
CL [11]: 3400 mL/min/kg
Activity [13]: > 10 µM
Vd [15]: 0.27 L/kg
CL [16]: 150 mL/min/kg
fraction unbound [17]: 0.0024
Activity [18]: > 50%
clearance [19]: 0.33 mL/min/kg
SMILES: CO[C@H]1C[C@H](Oc2cc(F)c(F)c(-c3ccc4c(c3)CC[C@H](CCC(=O)O)O4)n2)C1
Activity (Mus musculus [5]): Active
IC50 [6]: 27 µM
Activity (Mus musculus [9]): Dose-dependent effect
minimal effective dose (Mus musculus [9]; C57BL/6, Blood, read-out: MED): 10 mg/kg
Activity (Mus musculus [12]): Active
IC50 [14]: > 60 µM
